Consider ten compounds from patent publication US20200281897A1, “INDAZOLE DERIVATIVES FOR CANCER TREATMENT” (Servicio Andaluz de Salud, priority 2016, published 2020).

What all share (format): cell-based, human
The subject of data set [1] is U266 and RPMI cell lines. The data set is described as follows: Pretreatment with antagonists/inhibitors before WIN-55, MTT viability. The note with it: for effect of preincubation with CB2 antagonist on pro-apoptotic effect induced by WIN-55: 30 minutes pretreatment, then WIN-55 up to 18 hours; for effect of inhibitor on WIN-55-induced apoptosis / loss of viability: WIN-55 at suboptimal concentrations, 18 hours. As for the experimental part:
(§1) The MM cell lines and primary cells were exposed to different doses of indazole compounds, and viability was evaluated at 18, 48, and 72 hours. Pretreatments with the ceramide synthesis inhibitor (FB1), pan-caspase (ZVAD-FMK), and CB antagonists (PGN-8, PGN-37, and PGN-70) were performed for 30 minutes, and then the cells were incubated with indazole compound WIN-55 up to 18 hours. Cell viability was determined using the MTT assay Cell Counting Kit-8 (Dojindo, Kumamoto, Japan) according to the manufacturer's instructions.

Data set [2] concerns HL60 and KG-1a. Kind of data set: Antagonists/inhibitors together with WIN-55,212-2, WST-1 viability in AML cells. The note with it: WIN-55,212-2 10 μM, 18 hours; for effect of CB2 antagonist on cannabinoid-induced apoptosis: HL60 and KG1-a; for effect of inhibitor on cannabinoid-induced loss of viability: WST-1. As for the experimental part:
The cell lines and primary cells were cultured in 96-well plates (5×10e5 cells per well) with the addition of the indicated concentrations of WIN 55,212-2 or PGN cannabinoids in DMSO or with the solvent only in triplicate at 18, 48, and 72 hours. Caspase inhibitor Z-VAD (OMe)-FMK or the CB2 receptor antagonist PGN-8, -37, and -70, together with the cannabinoid WIN-55,212-2, were also added. Cell viability was determined by means of the WST-1 assay [2-(4-iodophenyl)-3-(4-nitrophenyl)-5-(2,4-disulfophenyl)-2H-tetrazolium] according to the manufacturer's instructions (Dojindo Molecular Technologies). Optical densities were measured at 450 nm using a Multiskan™ Go Microplate plate reader (Thermo Fisher Scientific, Waltham, Mass., USA).
Background: Tetrazolium assays rely on reduction of a dye to a coloured formazan, in cell work by metabolically active cells.

The test system of data set [3] is HL60. Kind of data set: Western blot and immunocytofluorescence in HL60 cells. The settings on record: HL60, WIN-55,212-2 10 μM. The source says: The detailed methodology for analyzing mitochondrial membrane potential (APm), Western Blot analysis, and immunocytofluorescence analysis has been described elsewhere 29
Data set [4] has as its system U266. Kind of data set: MTT cell viability assay, myeloma cell line U266. The settings on record: read-out: IC50, cell viability. As for the experimental part:
(§2) In vitro studies were carried out using six different human MM cell lines, U266, RPMI8226, MM1S, MM1R, U266-LR7, and RPMI-LR5. For ex vivo assays, human primary cells from healthy donors and MM patients were used (Table 1). Human MM cell lines U266, RPMI8226, and MM1.S were acquired from ATCC and lines U266-LR7, RPMI-LR5, and MM1.R were kindly provided by Dr. Enrique Ocio (Hospital Universitario de Salamanca, Spain). The primary cells were obtained from bone marrow (BM) aspirates or peripheral blood (PB) samples, and the peripheral blood mononuclear cells (PBMCs) were isolated by Ficoll-Hypaque centrifugation and washed twice in phosphate buffered saline (PBS) containing 1% BSA. Hematopoietic stem cells and B and T lymphocytes were isolated from healthy PB donors by positive immunomagnetic separation using human MACS CD34+, CD19+, and CD3+ microbeads, respectively. MM plasma cells were obtained from the bone marrow (BM) of patients with an infiltration of cells of more than 30% (Table 1). The MM plasma cells were identified using CD138+, and were then distinguished from the other cell populations by flow cytometry using a suitable combination of antibodies: anti-human CD64-FITC, CD34-PE, CD56-APC, CD38-APC-H7, and CD45-Pacific Blue antibodies (BD Biosciences, San Jose, Calif.). All the cell lines were cultured in RPMI-1640 supplemented with 10% fetal bovine serum (FBS) and 1% penicillin/streptomycin, as recommended by the supplier. For human primary cells, the concentration of FBS was up to 20%.
as §1

The subject of data set [5] is U266-LR7. Kind of data set: MTT cell viability assay, myeloma cell line U266-LR7. The settings on record: read-out: IC50, cell viability. As for the experimental part: as §2, §1
Data set [6] deals with MM1S. The data set is described as follows: MTT cell viability assay, myeloma cell line MM1S. The settings on record: read-out: IC50, cell viability. As for the experimental part:
as §2, §1

The test system of data set [7] is MM1R. Kind of data set: MTT cell viability assay, myeloma cell line MM1R. The settings on record: read-out: IC50, cell viability. As for the experimental part:
as §2, §1

Data set [8] relates to RPMI8226. The data set is described as follows: MTT cell viability assay, myeloma cell line RPMI. The note with it: read-out: IC50, cell viability. As for the experimental part:
as §2, §1

Data set [9] deals with RPMI-LR5. The data set is described as follows: MTT cell viability assay, myeloma cell line RPMI-LR5. The settings on record: read-out: IC50, cell viability. As for the experimental part: as §2, §1
Data set [10] concerns myeloma cell lines. The data set is described as follows: MTT cell viability assay, average over all myeloma cell lines. The settings on record: read-out: IC50 average. As for the experimental part: as §2, §1
The test system of data set [11] is lymphocytic T-cells (CD3+) and B-cells (CD19+). The data set is described as follows: Viability of T and B lymphocytes from healthy donors (MTT). As for the experimental part:
as §2, with “The MM plasma cells were identified using CD138+, and were then distinguished from the other cell populations by flow cytometry using a suitable combination of antibodies: anti-human CD64-FITC, CD34-PE, CD56-APC, CD38-APC-H7, and CD45-Pacific Blue antibodies (BD Biosciences, San Jose, Calif.). All the cell lines were cultured in RPMI-1640 supplemented with 10% fetal bovine serum (FBS) and 1% penicillin/streptomycin, as recommended by the supplier. For human primary cells, the concentration of FBS was up to 20%.” left out
The MM cell lines and primary cells were exposed to different doses of indazole compounds, and viability was evaluated at 18, 48, and 72 hours. […] Cell viability was determined using the MTT assay Cell Counting Kit-8 (Dojindo, Kumamoto, Japan) according to the manufacturer's instructions.

Data set [12] concerns U266. Kind of data set: Western blot and immunofluorescence in U266 cells. The note with it: U266, 50 μM fumonisin B1. As for the experimental part: The extracts for Western blot were taken after 0, 2, 6, 18, and 24 hours. The cells were lysed according to Gilbert et al., 2002. (J Immunol Methods. 2002, 271:185-201), by adding 2% ASB-14 (Calbiochem, Beeston, United Kingdom) to the isotonic lysis buffer. The protein concentration was determined by Pierce® Microplate BCA Protein Assay kit-Reducing Agent Compatible (Pierce, Rockford, Ill.). The samples were subjected to SDS/PAGE in AnykD precast gels (Bio Rad, Hercules, Calif.) and transferred to PVDF membranes using Trans-Blot® Turbo™ System (Bio-Rad). The membranes were incubated over night at 4° C. with primary antibody in 0.05% Tween 20-Tris buffered saline (TTBS) then with the suitable secondary antibody, and they were subjected to chemiluminescence detection. As a control condition, the cells were treated with DMSO (<0.15%) in RPMI 1640 medium from Gibco (Gaithersburg, Md.).
The antibodies for caspase-2, -8, -9, active caspase-3, -p-Akt (phospho T308), p-Erk (T202+Y204), -p-p38MAPK (phospho T180+Y182), -p-JNK (phospho T183+Y185), -SPT, and the CB1 and CB2 receptors were from Abcam, anti-MCL-1 and -Bcl-xL were from Santa Cruz Biotechnology, anti-PARP was from Cell Signaling Technology, anti-Bax and -Bak were from BD Biosciences. Anti-beta-tubulin was from Sigma-Aldrich. All the horseradish peroxidase (HRP)-conjugated secondary antibodies used were from Jackson ImmunoResearch and produced in a donkey to prevent the possible cross-reactivity when several tests were performed.
The cells treated for 6 hours with indazole compounds were collected and placed on a slide. Immunofluorescence staining was performed as described previously by Vielhaber et al. 2001 (Glycobiology. 2001, 11:451-7) using anti-ceramide as the primary antibody. The ceramide antibody was obtained from Sigma-Aldrich, and the Alexa-488-conjugated secondary antibody was obtained from Abcam. As a control condition, the cells were treated with DMSO (<0.15%) in RPMI 1640 medium from Gibco (Gaithersburg, Md.).
On the technique in general: Immunoblotting shows a protein as a band on a membrane.

[13] abbreviates: Homo sapiens, U-266, U266, MTT, 18 hours, doses 0-50 μM.
The mark [14] stands for this setting: Homo sapiens, U266-LR7, MTT, 18 hours, doses 0-50 μM.
Setting [15] is: Homo sapiens, MM.1R, MM1R, MTT, 18 hours, doses 0-50 μM.
Where [16] appears, read: Homo sapiens, RPMI-8226, RPMI, MTT, 18 hours, doses 0-50 μM.
[17] abbreviates: Homo sapiens, RPMI-LRS, MTT, 18 hours, doses 0-50 μM.
Setting [18] is: Homo sapiens, average over the six myeloma cell lines, MTT, 18 hours.

Where two headings read alike, the source gives them in different places. Residues, ends and D or L forms follow the SMILES beside them. *: point of attachment. Cbz = O=C(OCc1ccccc1)*; CH2F = FC*

As to `COc1ccc(COc2n[nH]c3ccc([N+](=O)[O-])cc23)cc1` [PGN-37, 3-(4-methoxybenzyloxy)-5-nitro-1H-indazole], the “effect of preincubation with CB2 antagonist on pro-apoptotic effect induced by WIN-55” value (from here on “effect of preincubation”) in [1] was “considerably inhibited”. Moreover, in [2], the “effect of CB2 antagonist on cannabinoid-induced apoptosis” value (“effect of CB2 antagonist” below) is “significantly inhibiting cannabinoid-induced apoptosis”.
Turning to `O=[N+]([O-])c1ccc2[nH]nc(OCc3cccc4ccccc34)c2c1` [PGN-70, 3-(1-naphthylmethoxy)-5-nitro-1H-indazole], in data set [1], the “effect of preincubation” value is on record as “considerably inhibited”. Moreover, in [2], the “effect of CB2 antagonist” value is “significantly inhibiting cannabinoid-induced apoptosis”.
For `CCCCCCC(=O)CCCCCC/C=C/C[C@@H](O)[C@H](O)[C@@](N)(CO)C(=O)O` [myriocin, Myriocin], in data set [3], the “effect on PARP fragmentation and Casp 3 cleavage induced by WIN-55,212-2” value was “prevented the fragmentation of PARP and the cleavage of Casp 3”.
With `Cn1nc(OCc2cccc3ccccc23)c2cc([N+](=O)[O-])ccc21` [PGN-8, 1-methyl-3-(1-naphthylmethoxy)-5-nitroindazole], the “effect of preincubation” value in [1] was “considerably inhibited”. In addition, the “effect of CB2 antagonist” value in data set [2] is on record as “significantly inhibiting cannabinoid-induced apoptosis”.
Consider `Nc1ccc2c(c1)c(OCc1cccc3ccccc13)nn2CCN1CCCCC1` [PGN72, 5-amino-3-(1-naphthylmethoxy)-1-(2-piperidinoethyl)indazole], for which the IC50 (as a rule, the concentration that gives 50% inhibition) worked out at 21.2 µM in data set [4] (setting [13]); 20.6 µM in data set [5] (setting [14]); 24.8 µM in data set [6] (Homo sapiens, MM1.S, MM1S, MTT, 18 hours, doses 0-50 μM); 26.7 µM in [7] (setting [15]); 19.6 µM in [8] (setting [16]); 41.4 µM in data set [9] (setting [17]). For the same compound, the IC50 in data set [10] (setting [18]) worked out at 25.7 µM.
Take `c1ccc2c(COc3nn(CCN4CCCCC4)c4ccccc34)cccc2c1` [PGN6, 3-(1-naphthylmethoxy)-1-(2-piperidinoethyl)indazole]: the IC50 in data set [4] (setting [13]) stood at 25.4 µM; in [5] (setting [14]) it was 78.2 µM; in [7] (setting [15]), 18.6 µM; in [8] (setting [16]) it was 14.4 µM; in [9] (setting [17]) it was 13.7 µM; in [10] (setting [18]), 29.7 µM. Further, in data set [11], the “viability of the lymphocytes” value is listed as “did not affect the viability of the lymphocytes”.
For `COC(=O)C[C@H](NC(=O)[C@H](C)NC(=O)[C@@H](NC(=O)OCc1ccccc1)C(C)C)C(=O)CF` [Z-VAD-FMK] (Cbz-Val-Ala-Asp(OMe)-CH2F), in [1], the “effect of inhibitor on WIN-55-induced apoptosis / loss of viability” value was “prevented the apoptosis”. For the same compound, the “effect of inhibitor on cannabinoid-induced loss of viability” value in data set [2] is reported as “abolished”.
With `Nc1ccc2c(c1)c(OCc1ccc3ccccc3c1)nn2CCN1CCCCC1` [PGN34, 5-amino-3-(2-naphthylmethoxy)-1-(2-piperidinoethyl)indazole], the IC50 in data set [4] (Homo sapiens, U-266, 18 h) was determined as 26.9 µM; in data set [5] (Homo sapiens, 18 h) it was 17.8 µM; in data set [6] (Homo sapiens, MM1.S, 18 h) it was 17.1 µM; in [7] (Homo sapiens, MM.1R, 18 h), 21 µM; in data set [8] (Homo sapiens, RPMI-8226, 18 h) it was 15.4 µM; in data set [9] (Homo sapiens, 18 h), 23.2 µM. Besides, the IC50 in [10] (Homo sapiens, 18 h) stood at 20.2 µM.
Turning to `CCCC[C@@H](C)[C@@H](OC(=O)C[C@@H](CC(=O)O)C(=O)O)[C@H](C[C@@H](C)C[C@H](O)CCCC[C@@H](O)C[C@H](O)[C@H](C)N)OC(=O)C[C@@H](CC(=O)O)C(=O)O` [FB1, Fumonisin B1], the “effect of inhibitor on WIN-55-induced apoptosis / loss of viability” value in [1] was “significantly reverses the effect”. Also, in data set [12], the “effect on PARP fragmentation induced by WIN-55” value was “considerably prevented the PARP fragmentation”. In addition, the “effect of inhibitor on cannabinoid-induced loss of viability” value in data set [2] is “only partially prevented”.
Regarding `c1ccc2c(COc3nn(CCN4CCCC4)c4ccccc34)cccc2c1` [PGN17], the IC50 came to 20.7 µM in data set [4] (U266, MTT, 18 hours, doses 0-50 μM); 51 µM in [5] (U266-LR7, MTT, 18 hours, doses 0-50 μM); 44.6 µM in [6] (MM1S, MTT, 18 hours, doses 0-50 μM); 20.5 µM in [7] (MM1R, MTT, 18 hours, doses 0-50 μM); 19.9 µM in [8] (RPMI, MTT, 18 hours, doses 0-50 μM); 21.7 µM in [9] (RPMI-LRS, MTT, 18 hours, doses 0-50 μM). Besides, the IC50 in [10] (average over the six myeloma cell lines, MTT, 18 hours) came out at 29.7 µM. Further, in [11] (healthy donors, doses with antiproliferative effect on MM cell lines), the “viability of the lymphocytes” value is given as “did not affect the viability of the lymphocytes”.
